Columns and labels:
[1] = molecular target: T1, Amine oxidase [flavin-containing] A (Homo sapiens, UniProt P21397); assay: Inhibition of MAO-A in human placental mitochondria at 5 uM; parameters: species or system Placenta
T1 sequence (P21397 whole entry): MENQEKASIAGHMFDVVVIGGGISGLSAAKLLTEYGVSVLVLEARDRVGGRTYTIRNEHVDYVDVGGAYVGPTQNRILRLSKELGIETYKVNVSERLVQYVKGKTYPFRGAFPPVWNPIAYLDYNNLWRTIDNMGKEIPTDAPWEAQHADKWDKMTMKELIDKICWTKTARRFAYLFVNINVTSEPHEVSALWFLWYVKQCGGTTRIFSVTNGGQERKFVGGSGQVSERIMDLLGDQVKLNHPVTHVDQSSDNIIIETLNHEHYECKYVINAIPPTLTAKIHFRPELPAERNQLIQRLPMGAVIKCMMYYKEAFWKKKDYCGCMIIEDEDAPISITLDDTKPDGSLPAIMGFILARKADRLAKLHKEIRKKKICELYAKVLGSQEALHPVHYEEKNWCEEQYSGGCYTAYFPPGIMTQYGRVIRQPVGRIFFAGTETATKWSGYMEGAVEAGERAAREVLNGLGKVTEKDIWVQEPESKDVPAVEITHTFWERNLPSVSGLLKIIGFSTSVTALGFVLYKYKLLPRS

[2] = molecular target: T2, Amine oxidase [flavin-containing] A (Rattus norvegicus, UniProt P21396); assay: Inhibition of MAO-A in rat brain mitochondria
T2 sequence (P21396 whole entry): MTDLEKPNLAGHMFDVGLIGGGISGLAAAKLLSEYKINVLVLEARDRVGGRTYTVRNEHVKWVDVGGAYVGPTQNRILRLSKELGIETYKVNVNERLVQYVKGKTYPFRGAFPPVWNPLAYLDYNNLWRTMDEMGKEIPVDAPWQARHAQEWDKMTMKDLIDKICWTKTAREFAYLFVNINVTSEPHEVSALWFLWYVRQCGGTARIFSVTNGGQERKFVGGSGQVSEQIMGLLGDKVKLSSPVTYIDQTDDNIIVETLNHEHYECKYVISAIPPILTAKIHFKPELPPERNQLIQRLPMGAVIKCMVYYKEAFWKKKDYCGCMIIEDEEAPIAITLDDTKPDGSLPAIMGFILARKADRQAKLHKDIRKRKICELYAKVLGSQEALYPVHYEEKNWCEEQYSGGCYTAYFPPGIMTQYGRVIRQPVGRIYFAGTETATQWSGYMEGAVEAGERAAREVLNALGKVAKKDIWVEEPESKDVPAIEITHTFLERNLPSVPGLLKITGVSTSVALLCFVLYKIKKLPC

[3] = molecular target: T3, Amine oxidase [flavin-containing] B (Rattus norvegicus, UniProt P19643); assay: Inhibition of MAO-B in rat brain mitochondria
T3 sequence (P19643 whole entry): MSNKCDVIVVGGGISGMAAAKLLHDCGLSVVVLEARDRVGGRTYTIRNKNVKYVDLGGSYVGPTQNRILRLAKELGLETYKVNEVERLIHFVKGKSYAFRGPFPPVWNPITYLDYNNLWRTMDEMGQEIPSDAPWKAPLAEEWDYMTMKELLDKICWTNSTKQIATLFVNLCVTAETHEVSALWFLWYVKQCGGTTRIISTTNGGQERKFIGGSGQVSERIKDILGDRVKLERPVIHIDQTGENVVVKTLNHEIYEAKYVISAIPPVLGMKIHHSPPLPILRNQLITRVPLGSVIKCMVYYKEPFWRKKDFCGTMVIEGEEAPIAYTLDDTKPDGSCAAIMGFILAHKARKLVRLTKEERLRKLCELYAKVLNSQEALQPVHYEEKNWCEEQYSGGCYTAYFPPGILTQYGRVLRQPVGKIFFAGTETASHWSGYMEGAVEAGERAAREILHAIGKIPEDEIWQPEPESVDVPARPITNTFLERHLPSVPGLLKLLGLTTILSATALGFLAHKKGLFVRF

| SMILES | Inhibition [1] | IC50 [2] [µM] | IC50 [3] [µM] |
| --- | --- | --- | --- |
| COc1ccc2c(c1)C(=O)c1cc(-c3cccc(C(F)(F)F)c3)nnc1-2 | Not Active | – | – |
| COc1ccc2c(c1)-c1nnc(-c3cccc(C(F)(F)F)c3)cc1C2=O | Not Active | – | – |
| COc1ccc2c(c1)-c1nnc(C)cc1C2=O | – | > 1 | > 1 |
| Cc1cc2c(nn1)-c1cc(OCc3ccccc3)ccc1C2=O | – | > 1 | 0.17 |

— ChEMBL document CHEMBL1148653, “Synthesis, structural reassignment, and biological activity of type B MAO inhibitors based on the 5H-indeno[1,2-c]pyridazin-5-one core” (J Med Chem, 2006)
